Results taken from patent US10940210B2, “BSH complex for boron neutron capture therapy” (National University Corporation Okayama University, priority 2016, dated 2021).

What was measured:
[1] = system: glioma cell line U87ΔEGFR; test: Delivery of complex into a cancer cell, boron concentration in the cell by ICP-AES; type: cell-based, human; settings: BSH 2 mM alone or with A6K (hydrochloride salt) 200 μM, 37° C. for 24 hours
Procedure: Mixing times were 10 minutes, 30 minutes, and 180 minutes. The obtained complex was diluted (pH 7.1 to 7.3) with PBS and added to a glioma cell line U87ΔEGFR in a petri dish. […] Each cell sample obtained by incubating, with the complex, at 37° C. for 3 hours, 12 hours, and 24 hours was subjected to ICP-AES thereby to measure a boron concentration in the cell. […] The incubation time of 12 hours was sufficient. […] The time for mixing with stirring of 10 minutes was sufficient. Increases in the BSH amounts in the cell were detected as an incubation time was extended.
A6R (TFA salt) and BSH were mixed with stirring by the same method as the method described in the above (1) to prepare a complex. The obtained complex was diluted (pH 7.1 to 7.3) with PBS and added to a glioma cell line U87ΔEGFR in a petri dish. Each cell sample obtained by incubating, with the complex, at 37° C. for 6 hours, 12 hours, and 24 hours was subjected to ICP-AES thereby to measure a boron concentration in the cell.
The complex containing A6K (hydrochloride salt) and BSH obtained in the above (1) (a molar ratio of A6K (hydrochloride salt):BSH was 1:10) was added to a glioma cell line U87ΔEGFR in a similar procedure to that described in Example 2 (2). The complex was added in an amount in such a way that final concentrations of A6K (hydrochloride salt) and BSH were as shown in FIG. 11. […]

U87ΔEGFR brain tumor = test: Tumor-specific introduction of BSH in brain tumor model animal, anti-BSH immunohistostaining; type: in vivo, mouse; settings: 200 μL tail vein, BSH 20 mM (with A6K 2 mM in complex); 12 hours after administration
Procedure: Animals used in the present experiment were bred, housed and used in accordance with the procedure approved (approval code: OKU-2016475) by the Animal Care and Use Committee, Okayama University. Tumor-bearing model mice (BALB/C nu/nu, female, 6 to 8 weeks of age, 25 g, Japan SLC, Inc., Shizuoka) were created by directly injecting 3 μL of a U87ΔEGFR cell suspension (1×10^5 cells/μL) into the brain. Two weeks later, 200 μL of the complex containing A6K and BSH (A6K 2 mM/BSH 20 mM) and 200 μL of BSH 20 mM as control experiments were respectively administered from the tail vein (given that a mouse body weight was 20 g, A6K-HCl was converted to 8 mg/kg and BSH was converted to 33.4 mg/kg.)
The complex used in the experiment (the compound described in Example 4 (1)) was prepared as follows. 70 μL of MQ water was added to 70 μL of A6K 10 mM to adjust to A6K 5 mM. […]
Twelve hours after administration, the mouse brain was embedded using an embedding medium for a frozen tissue section, tissue tek O.C.T compound. […] After washing, the section was immersed for 2 hours at room temperature in a solution of a donkey anti-mouse antibody (Life Technologies) labelled with Alexa-Fluor 488 (green fluorescence) (20 μg/mL) and a solution of a goat anti-rabbit antibody (Life Technologies) labelled with Alexa-Fluor 555 (red fluorescence) (2 μg/mL). […]

presence of BSH in brain tissue (green fluorescence) (U87ΔEGFR brain tumor): weak
Substance: mercaptoundecahydrododecaborate [BSH]
intracellular boron concentration [1]: 595.2±105.1 ng/10^6 cells
location of BSH relative to tumor tissue (HLA-A positive) (U87ΔEGFR brain tumor): not different between tumor tissues and normal brain tissues
